# From patent US4644085A, “Rooperol and its derivates” (Rooperol (NA) NV, priority 1985, dated 1987)
# Tests used:
# MOUSE SARCOMA M(52)B = assay: Inhibition of cell growth: mouse sarcoma M(52)B; type: cell-based; details: 96 h, media, usually four days, read-out: MINIMUM INHIBITORY CONCENTRATIONS (RANGE) WHICH PRODUCE APPROXIMATELY 50% CELL GROWTH REDUCTION
# Method: (§1) The cell cultures were grown under standard conditions at 37° C. in Eagle's Minimal Essential Medium (M.E.M., Gibco), with glutamine and non-essential amino acids, supplemented with 10% foetal calf serum (State Vaccine Institute, Cape Town). Cells for subcultures were obtained from 90-100% confluent cell cultures by trypsinisation with Ca^++ Mg^++ --free EDTA-Dulbecco Buffer, containing 0.25% trypsin. Trypsin was inactivated by placing the harvested cell suspension into M.E.M. containing 10% foetal calf serum. The cell suspensions were then suitably diluted to the final volume, depending on the number of cells obtained and the growth profile of the cell type. The diluted cell suspensions were then dispensed at the rate of 1.0 ml into prepared cell culture flasks containing 8.9 ml culture media. These cultures were incubated for 24 hours and the media changed before adding the test compounds.
# (§2) The test compounds were dissolved in dimethylsulphoxide (Merck) and added at the rate of 0.1 ml to the media in a dilution to give the desired end concentration.
# (§3) In each series of experiments, control cultures were treated with equivalent amounts of solvent without the test compound. The cultures were examined daily usually for a period of four days and cell growth and other cytopathic effects were records. Abnormal cell patterns and sizes were also determined during counting.
# (i) M (52) B Mouse Sarcoma
# HUMAN […] HOC = assay: Inhibition of cell growth: human oesophagal carcinoma HOC; type: cell-based; details: 96 h, read-out: MINIMUM INHIBITORY CONCENTRATIONS (RANGE) WHICH PRODUCE APPROXIMATELY 50% CELL GROWTH REDUCTION
# Method: as §1, §2, §3
# (iii) HOC Human Oesophagal Carcinoma
# [1] = system: HUMAN CERVICAL CANCER HeLa ATCC No. CCL2; assay: Inhibition of cell growth: human cervical cancer HeLa; type: cell-based; details: 96 h, media, usually four days, read-out: MINIMUM INHIBITORY CONCENTRATIONS (RANGE) WHICH PRODUCE APPROXIMATELY 50% CELL GROWTH REDUCTION
# Method: as §1, §2, §3
# (iv) HeLa Human Cervical Cancer
# P27-HUMAN MESOTHELIOMA = assay: Inhibition of cell growth: P27 human mesothelioma; type: cell-based; details: 96 h, media, usually four days, read-out: MINIMUM INHIBITORY CONCENTRATIONS (RANGE) WHICH PRODUCE APPROXIMATELY 50% CELL GROWTH REDUCTION
# Method: as §1, §2, §3
# (v) P27 Human Mesothelioma Cells
# Acute toxicity in mice = details: mouse, in vivo, po, P.O., single dose in vegetable oil, 7 days observation, read-out: MINIMUM TOLERATED SINGLE DOSE
# Method: (§4) Some compounds were subjected to preliminary acute toxicity tests in mice and rats. Solutions or suspensions of the selected compounds were prepared in vegetable oil. The volumes administered were kept constant at 10.0 ml per kg. In each case equal numbers of male and female animals were treated with a single dose. All animals were observed over 7 days for signs of toxic and/or pharmacodynamic effects. Necropsies were performed on all surviving animals.
# Acute toxicity in rats = details: rat, in vivo, po, P.O., single dose in vegetable oil, 7 days observation, read-out: MINIMUM TOLERATED SINGLE DOSE
# Method: as §4
# cancer = details: reported in EPO Patent Application No. 83103765.0; cited from earlier work
# CHANG CO[…] No. CCL20.2 = assay: Inhibition of cell growth: Chang conjunctival; type: cell-based; details: 96 h, read-out: MINIMUM INHIBITORY CONCENTRATIONS (RANGE) WHICH PRODUCE APPROXIMATELY 50% CELL GROWTH REDUCTION
# Method: as §1, §2, §3
# (vii) Chang Chang Conjunctival cells
# [2] = system: "LOOT'S" CELLS HUMAN ADENOCARCINOMA; assay: Inhibition of cell growth: "Loot's" cells human adenocarcinoma; type: cell-based; details: 96 h, media, usually four days, read-out: MINIMUM INHIBITORY CONCENTRATIONS (RANGE) WHICH PRODUCE APPROXIMATELY 50% CELL GROWTH REDUCTION
# Method: as §1, §2, §3
# (vi) "Loots" cells Human Derived Adenocarcinoma
# MOUSE MELANOMA B16-BL6 = assay: Inhibition of cell growth: mouse melanoma B16-BL6; type: cell-based; details: 96 h, media, usually four days, read-out: MINIMUM INHIBITORY CONCENTRATIONS (RANGE) WHICH PRODUCE APPROXIMATELY 50% CELL GROWTH REDUCTION
# Method: as §1, §2, §3
# (ii) Mel B16 BL06 Mouse Melanoma
smiles,measurement,setting,value
C(#Cc1ccccc1)C/C=C/c1ccccc1 [Product 3],IC50,MOUSE SARCOMA M(52)B,50 to 75 µg/mL
same,IC50,HUMAN […] HOC,25 to 50 µg/mL
same,IC50,[1],40 to 60 µg/mL
same,IC50,P27-HUMAN MESOTHELIOMA,25 to 50 µg/mL
same,MTD at 168 h,Acute toxicity in mice,500 mg/kg
same,MTD at 168 h,Acute toxicity in rats,1500 mg/kg
COc1ccc(C#CC/C=C/c2ccccc2)cc1 [Product 6],IC50,HUMAN […] HOC,10 to 20 µg/mL
same,IC50,[1],60 to 100 µg/mL
"OC[C@H]1O[C@@H](Oc2ccc(C#CC/C=C/c3ccc(O[C@@H]4O[C@H](CO)[C@@H](O)[C@H](O)[C@H]4O)c(O)c3)cc2O)[C@H](O)[C@@H](O)[C@@H]1O [Hypoxoside, (E)-1,5-bis(3',4'-dihydroxyphenyl)pent-4-en-1-yne 4',4'-di-B-D-glucopyranoside]",anticancer activity,cancer,has anticancer activity
C/C=C/C(O)C#CCO (centres unmarked) [Product 29],IC50,[1],50 µg/mL
C=CC(=O)C#Cc1ccccc1 [Product 26],IC50,[1],20 to 40 µg/mL
same,IC50,CHANG CO[…] No. CCL20.2,2.5 to 10 µg/mL
CCOC(=O)C(=Cc1ccccc1)CC#Cc1ccccc1 [Product 23],IC50,MOUSE SARCOMA M(52)B,75 to 100 µg/mL
same,IC50,HUMAN […] HOC,20 to 50 µg/mL
same,IC50,[1],60 to 100 µg/mL
same,IC50,[2],25 to 50 µg/mL
same,IC50,CHANG CO[…] No. CCL20.2,25 to 75 µg/mL
same,MTD at 168 h,Acute toxicity in mice,750 mg/kg
Brc1ccc(C#CC/C=C/c2ccccc2)cc1 [Product 10],IC50,[1],25 to 50 µg/mL
OCC#CC/C=C/c1ccccc1 [Product 31],IC50,[1],25 to 50 µg/mL
C/C=C/C(O)C#CCOC1CCCCO1 (centres unmarked) [Product 21],IC50,[1],25 to 50 µg/mL
OC(C#Cc1ccccc1)C=C(Cl)c1ccccc1 (centres unmarked) [Product 19],IC50,[1],20 to 40 µg/mL
same,MTD at 168 h,Acute toxicity in mice,250 mg/kg
C=CCC#CCOC1CCCCO1 (centres unmarked) [Product 13],IC50,[1],50 to 100 µg/mL
COc1ccc(C#CC(O)/C=C/c2ccco2)cc1OC (centres unmarked) [Product 15],IC50,[1],25 to 50 µg/mL
C=CCC#CCO [Product 30],IC50,[1],50 µg/mL
C=CCC#Cc1ccccc1 [Product 2],IC50,HUMAN […] HOC,50 to 100 µg/mL
same,IC50,[1],50 to 75 µg/mL
same,MTD at 168 h,Acute toxicity in mice,≥ 1000 mg/kg
same,MTD at 168 h,Acute toxicity in rats,500 mg/kg
COc1ccc(C#CC/C=C/c2ccccc2)cc1OC [Product 9],IC50,[1],60 to 100 µg/mL
"Oc1ccc(C#CC/C=C/c2ccc(O)c(O)c2)cc1O [Product 1, 3',3',4',4',-tetrahydroxyrooperol]",IC50,MOUSE SARCOMA M(52)B,12.5 to 25 µg/mL
same,IC50,MOUSE MELANOMA B16-BL6,10 to 25 µg/mL
same,IC50,HUMAN […] HOC,25 to 50 µg/mL
same,IC50,[1],20 to 40 µg/mL
same,IC50,P27-HUMAN MESOTHELIOMA,10 to 25 µg/mL
same,IC50,[2],12.5 to 25 µg/mL
same,IC50,CHANG CO[…] No. CCL20.2,20 to 25 µg/mL
OC(CCl)CC#Cc1ccccc1 (centres unmarked) [Product 11],IC50,[1],25 to 50 µg/mL
same,MTD at 168 h,Acute toxicity in mice,≥ 1000 mg/kg
C=CC(O)C#Cc1ccccc1 (centres unmarked) [Product 20],IC50,[1],25 to 50 µg/mL
COc1ccc(C#CC(O)/C=C/c2ccccc2)cc1OC (centres unmarked) [Product 18],IC50,[1],25 to 50 µg/mL
C(#Cc1ccc2c(c1)OCO2)C/C=C/c1ccc2c(c1)OCO2 [Product 7],IC50,MOUSE SARCOMA M(52)B,60 to 80 µg/mL
COc1ccc(C#CC/C=C/c2ccc(OC)c(OC)c2)cc1OC [Product 8],IC50,MOUSE SARCOMA M(52)B,60 to 80 µg/mL
same,IC50,[1],60 to 100 µg/mL
same,IC50,P27-HUMAN MESOTHELIOMA,40 to 60 µg/mL
OC(C#Cc1ccccc1)/C=C/c1ccccc1 (centres unmarked) [Product 16],IC50,MOUSE SARCOMA M(52)B,20 to 40 µg/mL
same,IC50,MOUSE MELANOMA B16-BL6,20 to 50 µg/mL
same,IC50,[1],25 to 50 µg/mL
same,IC50,P27-HUMAN MESOTHELIOMA,25 to 50 µg/mL
same,IC50,[2],12.5 to 25 µg/mL
same,MTD at 168 h,Acute toxicity in mice,500 mg/kg
same,MTD at 168 h,Acute toxicity in rats,500 mg/kg
C(#Cc1ccccc1)CC1CO1 (centres unmarked) [Product 24],IC50,[1],25 to 50 µg/mL
COc1ccc(C#CC/C=C/c2ccc(OC)cc2)cc1 [Product 5],IC50,HUMAN […] HOC,≥ 25 µg/mL
O=C(C#Cc1ccccc1)/C=C/c1ccccc1 [Product 25],IC50,MOUSE MELANOMA B16-BL6,12.5 to 25 µg/mL
same,IC50,[1],5 to 10 µg/mL
same,IC50,CHANG CO[…] No. CCL20.2,2.5 to 10 µg/mL
OC(C#Cc1ccccc1)/C=C/c1ccco1 (centres unmarked) [Product 17],IC50,[1],20 to 25 µg/mL
same,IC50,P27-HUMAN MESOTHELIOMA,20 to 50 µg/mL
same,MTD at 168 h,Acute toxicity in mice,500 mg/kg
same,MTD at 168 h,Acute toxicity in rats,500 mg/kg
